According to US20180280480A1, “COMPOSITIONS AND PEPTIDES HAVING DUAL GLP-1R AND GLP-2R AGONIST ACTIVITY” (priority 2014, published 2018):
Marks after values point to notes of the source that are not given here.

What was measured:
Assay type in all cases: in vivo
[1] = system: diabetic db/db (BKS.Cg-m+/+Leprdb/J) male mice; assay: Oral glucose tolerance test in diabetic db/db mice; settings: for Blood glucose during an oral glucose tolerance test. Area under the curve (AUC) −240 to 240 min.: Day 56, mean ± S.E.M.
Protocol: A total of forty-six (46) diabetic db/db (BKS.Cg-m+/+Leprdb/J) male mice, 5 weeks old at arrival, was obtained from Janvier (France). The mice were acclimatized for two weeks in their new environment with free access to normal chow (Altromin 1324, Brogaarden A/S, Gentofte, Denmark) and domestic quality tap water. They were housed in groups of n=2 in a light-, temperature-, and humidity-controlled room (12-hour light: 12-hour dark cycle, lights On/Off at 04.00/16.00 h; 22±1° C.; 50±10% relative humidity). During the habituation period animals was accustomed to the experimental paradigm.
Baseline, free fed blood glucose samples were obtained bi-weekly prior to study start (blood was collected from the tail vein) in order to screen for the diabetic state. The 40 animals closest to the mean BG/BW value at day −3 were randomized into 4 groups (n=10/group; the remaining 6 animals was be discarded from the main study): Group 1: Vehicle, BID, SC. Group 2: SEQ ID NO 6, 50 nmol/kg, BID, SC. Group 3: SEQ ID NO 6, 250 nmol/kg, BID, SC. […] During day 0-58 of the experiment, animals received a subcutaneous dosing twice daily at 06.00-08.00 hours and again between 02.00-04.00 hours. Dose volume was 5 ml/kg.
On experimental day 56 an oral glucose tolerance test was performed. Animals were mildly fasted as food was removed 4 hours prior to administration of the glucose bolus. Compounds were administered 45 minutes prior to the OGTT. At t=0, mice received an oral glucose load of 2 g/kg glucose (Glucose 200 mg/ml, Fresenius Kabi, Sweden). Glucose was given as gavage via a gastrically placed tube connected to a syringe ensuring accurate dosing. Blood samples were collected from the tail vein and blood-glucose was measured at time points −60, 0, 15, 30, 60, 120 and 240 minutes after the glucose administration. Samples for measuring HbA1c was taken in parallel with blood glucose at t=−60 minutes. Mice were re-fed after the last blood sampling.

[2] = system: Diet Induced Obese (DIO) Sprague-Dawley Rats; assay: Oral glucose tolerance test in DIO Sprague-Dawley rats
C57BL/6J mice [3] = assay: GLP1R-GLP2R dual agonist compound study: gut wet weight
Description: On study day 8, the mice were terminated and the GI tract was removed for determination of the gut wet weight. The gut wet weight results are listed below in Table 12.

[4] = system: Diet Induced Obese (DIO) Sprague-Dawley Rats; assay: Small and large intestinal volume (stereology) in DIO Sprague-Dawley rats
Protocol: (§1) Thirty (30) male Sprague-Dawley rats (7 weeks of age) were purchased from Taconic (Denmark) and transferred to the Gubra animal unit. During the acclimatization period, the rats were housed two per cage under a 12:12 light dark cycle (lights on from 04.00-16.00 h) at controlled temperature conditions (22±1° C.; 50±10% relative humidity). Throughout the study the rats had ad libitum access to a two choice diet—regular Altromin 1324 rodent chow (Brogaarden, Denmark) and a paste made from Chocolate spread (Nutella, Ferrero Italy), peanut butter and powdered regular Altromin 1324 rodent chow (Brogaarden, Denmark). The animals were kept on the diet for 65 weeks before experimentation. Animals were switched to single housing during the entire study period (day −6 to 25).
The animals were randomized into three study groups (n=10 per group) based on body weight recorded on day −1 to participate in one of the following groups: Group 1: Vehicle, SC, BID. Group 2: SEQ ID NO 6, 82 nmol/kg (day 2-7), 164 nmol/kg (day 8-14) and 328 nmol/kg (day 15-25), SC, BID. […] Body weight was measured from day −3 to termination on day 25. Total body fat mass was analyzed before study start (day −1) and before termination (study day 25) by non-invasive EchoMRI-900 (EchoMRI, USA). […] Blood glucose was measured from tail vein blood before (t=−120 and 0 min, baseline) and after glucose administration (t=15, 30, 60 and 120 min). Blood samples was collected into 10 μl heparinized glass capillary tubes and immediately suspended in buffer (0.5 ml of glucose/lactate system solution (EKF-diagnostics, Germany) and analyzed for glucose on the test day using a BIOSEN c-Line glucose meter (EKF-diagnostics, Germany) according to manufacturer's instructions. On study day 25, the rats were terminated and the GI tract was removed. Intestines were flushed with saline, weighed and then fixated in 4% PFA for determination of small and large intestinal volume by stereological methods as described by Hansen et al. 2013, Am J Transl Res 5(3): 347-58).

[5] = system: Diet Induced Obese (DIO) Sprague-Dawley Rats; assay: Body weight and whole body fat mass in DIO Sprague-Dawley rats; settings: for Body weight: mean ± S.E.M.; for Whole body fat mass: EchoMRI
Protocol: as §1
The animals were randomized into three study groups (n=10 per group) based on body weight recorded on day −1 to participate in one of the following groups: Group 1: Vehicle, SC, BID. Group 2: SEQ ID NO 6, 82 nmol/kg (day 2-7), 164 nmol/kg (day 8-14) and 328 nmol/kg (day 15-25), SC, BID. […] Dosing took place in the morning (between 06.00 and 08.00 h) and prior to lights out in the afternoon (between 13.30 and 14.00 h). Doses were administered subcutaneously with a dose volume 1 ml/kg. All rats were handled prior to experimentation to acclimatize the animals to handling and procedures. Body weight was measured from day −3 to termination on day 25. Total body fat mass was analyzed before study start (day −1) and before termination (study day 25) by non-invasive EchoMRI-900 (EchoMRI, USA). On day 23 of the study, rats were subjected to an oral glucose tolerance test (OGTT). Animals were mildly fasted as all food was removed 4 hours prior to the oral glucose load. Vehicle and compounds were administered subcutaneously (SC) 2 hours prior to the OGTT. At t=0 rats received an oral glucose load (2 g/kg; 4 ml/kg; […], Fresenius Kabi, Sweden). Glucose was given as gavage via a gastrically-placed tube connected to a syringe ensuring accurate dosing. Blood glucose was measured from tail vein blood before (t=−120 and 0 min, baseline) and after glucose administration (t=15, 30, 60 and 120 min). Blood samples was collected into 10 μl heparinized glass capillary tubes and immediately suspended in buffer (0.5 ml of glucose/lactate system solution (EKF-diagnostics, Germany) and analyzed for glucose on the test day using a BIOSEN c-Line glucose meter (EKF-diagnostics, Germany) according to manufacturer's instructions. On study day 25, the rats were terminated and the GI tract was removed. Intestines were flushed with saline, weighed and then fixated in 4% PFA for determination of small and large intestinal volume by stereological methods as described by Hansen et al. 2013, Am J Transl Res 5(3): 347-58).

C57BL/6J mice [6] = assay: GLP1R-GLP2R dual agonist compound study: cumulative food intake
Description: Forty (40, n=10, 4 groups) male C57BL/6J mice obtained from Taconic, Denmark, were used. At the time of the experiment, the mice had reached an age of 9-10 weeks. The mice were acclimatized for one week in their new environment and offered regular chow diet (Altromin 1324, Brogaarden A/S, Denmark) and domestic quality tap water. Animals were housed two per cage during the study, in a light-, temperature-, and humidity-controlled room (12-hour light: 12-hour dark cycle, lights on/off at 4 AM/4 PM hour; 22±1° C.; 50±10% relative humidity). […] Animals were uniquely identified with implantable microchips (Pet ID Microchip, E-vet) in all mice upon arrival. Animals were identified using the WS-2 weight station (MBrose ApS, Faaborg, Denmark) connected to a laptop running the HM02Lab software (Ellegaard Systems, Faaborg, Denmark). The HM02Lab software matches the body weight with ID and calculates the dose directly based on the body weight. All mice were handled for 3 days prior to the experiment to acclimatize the animals to handling and injections.

[7] = Day 25, 328 nmol/kg, mean ± S.E.M.
[8] = Day 25, 328 nmol/kg (escalated 82, 164, 328 nmol/kg SC BID)

R^1-HGDGSFTSELSTYLDALAARDFIAWLIQTKITDR^2 [SEQ ID NO 6]
glucose tolerance compared to liraglutide ([1]; 250 nmol/kg, P=0.03, Student's t-test): even further improved glucose tolerance compared to animals treated with liraglutide | Blood glucose during an oral glucose tolerance test. Area under the curve (AUC) −240 to 240 min. ([1]; 50 nmol/kg BID SC): 3543 ± 469 mmol·min/L | Blood glucose during an oral glucose tolerance test. Area under the curve (AUC) −240 to 240 min. ([1]; 250 nmol/kg BID SC): 2472 ± 119 mmol·min/L | effect on glucose tolerance ([2]; DIO rats, Table 15): improved glucose tolerance | Blood glucose during an oral glucose tolerance test. Area under the curve (AUC) −45 to 240 min. ([2]; Day 23, 328 nmol/kg, mean ± S.E.M.): 1731 ± 77.0 mmol·min/L | Gut wet weight (C57BL/6J mice [3]; Day 8, 3.0 mg/kg BID SC, mean ± S.E.M.): 3.8 ± 0.3 g | gut wet weight compared to vehicle and teduglutide (C57BL/6J mice [3]; dosed twice daily for 8 days): significantly increased the gut wet weight | Large intestine volume [4, 7]: 2.64 ± 0.17 cm^3 | Small intestine volume [4, 7]: 8.50 ± 0.62*** cm^3 | effect on small intestine volume ([4]; treatment for 25 days, stereology): striking increase in small intestine volume | Body weight ([5]; Day 0 (baseline), 328 nmol/kg group (escalated 82, 164, 328 nmol/kg SC BID)): 962.7 ± 27.8 g | Whole body fat mass [5, 8]: 292.2 ± 25.4 g | Body weight [5, 8]: 803.9 ± 35.5 g | Whole body fat mass ([5]; Day −1 (baseline), 328 nmol/kg group (escalated 82, 164, 328 nmol/kg SC BID)): 400.3 ± 18.3 g | Cumulative food intake (C57BL/6J mice [6]; Day 0-7, 3.0 mg/kg BID SC, mean ± S.E.M.): 21.96 ± 1.46 g | cumulative food intake compared to vehicle and teduglutide (C57BL/6J mice [6]; dosed twice daily for 7 days): considerably reduced cumulative food intake
